molecular target: T1, human NEP (Homo sapiens, UniProt P08473); test: In vitro enzyme inhibition assay at human NEP (Assay 1); assay type: biochemical; settings: recombinant enzyme, fluorogenic peptide substrate, 37° C.
T1 construct: purchased R&D Systems, Minneapolis, Minn; 1182-ZN
Protocol: In Vitro Assays for the Quantitation of Inhibitor Potencies (IC50) at Human and Rat NEP, and Human ACE
The inhibitory activities of compounds at human and rat neprilysin (EC 3.4.24.11; NEP) and human angiotensin converting enzyme (ACE) were determined using in vitro assays as described below.
Recombinant human NEP and recombinant human ACE were obtained commercially (R&D Systems, Minneapolis, Minn., catalog numbers 1182-ZN and 929-ZN, respectively). The fluorogenic peptide substrate Mca-D-Arg-Arg-Leu-Dap-(Dnp)-OH (Medeiros et al. (1997) Braz. J. Med. Biol. Res. 30:1157-62; Anaspec, San Jose, Calif.) and Abz-Phe-Arg-Lys(Dnp)-Pro-OH (Araujo et al. (2000) Biochemistry 39:8519-8525; Bachem, Torrance, Calif.) were used in the NEP and ACE assays respectively.
The assays were performed in 384-well white opaque plates at 37° C. using the fluorogenic peptide substrates at a concentration of 10 μM in Assay Buffer (NEP: 50 mM HEPES, pH 7.5, 100 mM NaCl, 0.01% polyethylene glycol sorbitan monolaurate (Tween-20), 10 μM ZnSO4; ACE: 50 mM HEPES, pH 7.5, 100 mM NaCl, 0.01% Tween-20, 1 μM ZnSO4).
Test compounds were assayed over the range of concentrations from […] to 20 μM. Test compounds were added to the enzymes and incubated for 30 minute at 37° C. prior to initiating the reaction by the addition of substrate. Reactions were terminated after 20 minutes of incubation at 37° C. by the addition of glacial acetic acid to a final concentration of 3.6% (v/v).
Plates were read on a fluorometer with excitation and emission wavelengths set to 320 nm and 405 nm, respectively. Inhibition constants were obtained by nonlinear regression of the data using the equation (GraphPad Software, Inc., San Diego, Calif.): v=v0/[1+(I/K′)] where v is the reaction rate, v0 is the uninhibited reaction rate, I is the inhibitor concentration and K′ is the apparent inhibition constant.
Compounds of the invention were tested in this assay and found to have pKi values at human NEP as follows.

T1 sequence (P08473 whole entry): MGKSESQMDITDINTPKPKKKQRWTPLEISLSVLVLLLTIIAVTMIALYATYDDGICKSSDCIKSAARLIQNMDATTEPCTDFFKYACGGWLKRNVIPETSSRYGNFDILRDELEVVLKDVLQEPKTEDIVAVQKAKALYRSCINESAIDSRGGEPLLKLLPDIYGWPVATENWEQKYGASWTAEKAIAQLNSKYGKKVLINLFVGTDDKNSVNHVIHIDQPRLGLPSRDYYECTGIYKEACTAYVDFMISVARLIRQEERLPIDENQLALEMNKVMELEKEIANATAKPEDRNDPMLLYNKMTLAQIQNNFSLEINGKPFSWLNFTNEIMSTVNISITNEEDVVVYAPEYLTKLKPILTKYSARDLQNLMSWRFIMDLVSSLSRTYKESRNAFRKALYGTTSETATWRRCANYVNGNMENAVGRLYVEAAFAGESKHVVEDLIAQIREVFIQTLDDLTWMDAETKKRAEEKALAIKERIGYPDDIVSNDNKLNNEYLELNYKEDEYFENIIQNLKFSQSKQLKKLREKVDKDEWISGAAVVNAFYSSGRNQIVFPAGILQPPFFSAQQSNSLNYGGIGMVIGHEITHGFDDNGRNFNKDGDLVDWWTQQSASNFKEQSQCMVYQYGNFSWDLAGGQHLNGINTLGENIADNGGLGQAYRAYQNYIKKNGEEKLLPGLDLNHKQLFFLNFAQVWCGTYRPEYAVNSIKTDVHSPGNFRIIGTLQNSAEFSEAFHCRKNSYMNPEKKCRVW

Structure (SMILES) | Ki [nM]
O=C(NN(Cc1ccc(-c2cccc(Cl)c2)cc1)C[C@H](O)C(=O)O)c1cc(O)no1 [Example 3K, (S)-3-[N-(3′-Chloro-biphenyl-4-ylmethyl)-N′-(3-hydroxyisoxazole-5-carbonyl)-hydrazino]-2-hydrox-propionic Acid] | ≤ 1
O=C(NN(Cc1ccc(-c2cccc(Cl)c2)cc1)C[C@@H](O)C(=O)O)c1nc(Cl)n[nH]1 [Example 4-1, (R)-3-[N-(3′-Chlorobiphenyl-4-ylmethyl)-N′-(5-chloro-2H-[1,2,4]triazole-3-carbonyl)-hydrazino]-2-hydroxy-propionic acid] | 1.26 to 10
O=C(NN(Cc1ccc(-c2cccc(Cl)c2)cc1)C[C@@H](O)C(=O)O)c1nc(O)n[nH]1 [Example 4-2, (R)-3-[N-(3′-Chlorobiphenyl-4-ylmethyl)-N′-(5-hydroxy-2H-[1,2,4]triazole-3-carbonyl)-hydrazino]-2-hydroxy-propionic acid] | 1.26 to 10
O=C(NN(Cc1ccc(-c2cccc(Cl)c2)cc1)C[C@@H](O)C(=O)O)c1cnn[nH]1 [Example 4-3, (R)-3-[N-(3′-Chlorobiphenyl-4-ylmethyl)-N′-(3H-[1,2,3]triazole-4-carbonyl)-hydrazino]-2-hydroxy-propionic acid] | 1.26 to 10
O=C(NN(Cc1ccc(-c2cccc(Cl)c2)cc1)C[C@@H](O)C(=O)O)c1cn(O)nn1 [Example 4-4, (R)-3-[N-(3′-Chlorobiphenyl-4-ylmethyl)-N′-(1-hydroxy-1H-[1,2,3]triazole-4-carbonyl)-hydrazino]-2-hydroxy-propionic acid] | ≤ 1
O=C(NN(Cc1ccc(-c2cccc(Cl)c2)cc1)C[C@@H](O)C(=O)O)c1nnn[nH]1 [Example 4-5, (R)-3-[N-(3′-Chlorobiphenyl-4-ylmethyl)-N′-(1H-tetrazole-5-carbonyl)-hydrazino]-2-hydroxy-propionic acid] | ≤ 1
O=C(NN(Cc1ccc(-c2cccc(Cl)c2)cc1)C[C@@H](O)C(=O)O)c1cc(-c2cccnc2)[nH]n1 [Example 4-9, (R)-3-[N-(3′-Chlorobiphenyl-4-ylmethyl)-N′-(5-pyridin-3-yl-1H-pyrazole-3-carbonyl)-hydrazino]-2-hydroxy-propionic acid] | 1.26 to 10
O=C(NN(Cc1ccc(-c2cccc(Cl)c2)cc1)C[C@@H](O)C(=O)O)c1cc(C2CC2)[nH]n1 [Example 4-10, (R)-3-[N-(3′-Chlorobiphenyl-4-ylmethyl)-N′-(5-cyclopropyl-1H-pyrazole-3-carbonyl)-hydrazino]-2-hydroxy-propionic acid] | 1.26 to 10
O=C(NN(Cc1ccc(-c2cccc(Cl)c2)cc1)C[C@@H](O)C(=O)O)c1cc(C(=O)N2CCCC2)n[nH]1 [Example 4-11, (R)-3-{N-(3′-Chlorobiphenyl-4-ylmethyl)-N′-[5-(pyrrolidine-1-carbonyl)-2H-pyrazole-3-carbonyl]-hydrazino}-2-hydroxy-propionic acid] | ≤ 1
O=C(NN(Cc1ccc(-c2cccc(Cl)c2)cc1)C[C@@H](O)C(=O)O)c1cc(C(=O)N2CCC2)n[nH]1 [Example 4-12, (R)-3-[N′-[5-(Azetidine-1-carbonyl)-2H-pyrazole-3-carbonyl]-N-(3′-chlorobiphenyl-4-ylmethyl)-hydrazino]-2-hydroxy-propionic acid] | ≤ 1
CN(C)C(=O)c1cc(C(=O)NN(Cc2ccc(-c3cccc(Cl)c3)cc2)C[C@@H](O)C(=O)O)[nH]n1 [Example 4-13, (R)-3-[N-(3′-Chlorobiphenyl-4-ylmethyl)-N′-(5-dimethylcarbamoyl-2H-pyrazole-3-carbonyl)-hydrazino]-2-hydroxy-propionic acid] | ≤ 1
O=C(NN(Cc1ccc(-c2cccc(Cl)c2)cc1)C[C@@H](O)C(=O)O)c1cc(C(=O)N2CC[C@@H](O)C2)n[nH]1 [Example 4-14, (R)-3-{N-(3′-Chlorobiphenyl-4-ylmethyl)-N′-[5-((R)-3-hydroxy-pyrrolidine-1-carbonyl)-2H-pyrazole-3-carbonyl]-hydrazino}-2-hydroxy-propionic acid] | ≤ 1
O=C(NN(Cc1ccc(-c2cccc(Cl)c2)cc1)C[C@@H](O)C(=O)O)c1cc(-c2ccccc2Cl)n[nH]1 [Example 4-15, (R)-3-{N-(3′-Chlorobiphenyl-4-ylmethyl)-N′-[5-(2-chlorophenyl)-2H-pyrazole-3-carbonyl]-hydrazino}-2-hydroxy-propionic acid] | ≤ 1
CC(C)CN(C)C(=O)c1cc(C(=O)NN(Cc2ccc(-c3cccc(Cl)c3)cc2)C[C@@H](O)C(=O)O)[nH]n1 [Example 4-16, (R)-3-{N-(3′-Chlorobiphenyl-4-ylmethyl)-N′-[5-(isobutyl-methyl-carbamoyl)-2H-pyrazole-3-carbonyl]-hydrazino}-2-hydroxy-propionic acid] | ≤ 1
CN(CC1CC1)C(=O)c1cc(C(=O)NN(Cc2ccc(-c3cccc(Cl)c3)cc2)C[C@@H](O)C(=O)O)[nH]n1 [Example 4-17, (R)-3-{N-(3′-Chlorobiphenyl-4-ylmethyl)-N′-[5-(cyclopropylmethyl-methyl-carbamoyl)-2H-pyrazole-3-carbonyl]-hydrazino}-2-hydroxy-propionic acid] | ≤ 1
O=C(NN(Cc1ccc(-c2cccc(Cl)c2)cc1)C[C@@H](O)C(=O)O)c1cc(C(=O)N2CC(F)C2)n[nH]1 [Example 4-18, (R)-3-{N-(3′-Chlorobiphenyl-4-ylmethyl)-N′-[5-(3-fluoroazetidine-1-carbonyl)-2H-pyrazole-3-carbonyl]-hydrazino}-2-hydroxy-propionic acid] | ≤ 1
O=C(NN(Cc1ccc(-c2cccc(Cl)c2)cc1)C[C@@H](O)C(=O)O)c1cc(-c2ccccc2O)n[nH]1 [Example 4-19, (R)-3-{N-(3′-Chlorobiphenyl-4-ylmethyl)-N′-[5-(2-hydroxy-phenyl)-2H-pyrazole-3-carbonyl]-hydrazino}-2-hydroxy-propionic acid] | 1.26 to 10
COc1ccccc1-c1cc(C(=O)NN(Cc2ccc(-c3cccc(Cl)c3)cc2)C[C@@H](O)C(=O)O)[nH]n1 [Example 4-20, (R)-3-{N-(3′-Chlorobiphenyl-4-ylmethyl)-N′-[5-(2-methoxy-phenyl)-2H-pyrazole-3-carbonyl]-hydrazino}-2-hydroxy-propionic acid] | 1.26 to 10
O=C(NN(Cc1ccc(-c2cccc(Cl)c2)cc1)C[C@@H](O)C(=O)O)c1cc(-c2ccccn2)n[nH]1 [Example 4-21, (R)-3-[N-(3′-Chlorobiphenyl-4-ylmethyl)-N′-(5-pyridin-2-yl-2H-pyrazole-3-carbonyl)-hydrazino]-2-hydroxy-propionic acid] | 1.26 to 10
CCCCc1cc(C(=O)NN(Cc2ccc(-c3cccc(Cl)c3)cc2)C[C@@H](O)C(=O)O)[nH]n1 [Example 4-22, (R)-3-[N′-(5-Butyl-2H-pyrazole-3-carbonyl)-N-(3′-chlorobiphenyl-4-ylmethyl)-hydrazino]-2-hydroxy-propionic acid] | ≤ 1
O=C(O)c1cc(C(=O)NN(Cc2ccc(-c3cccc(Cl)c3)cc2)C[C@@H](O)C(=O)O)[nH]n1 [Example 4-23, 5-[N′-((R)-2-Carboxy-2-hydroxy-ethyl)-N′-(3′-chlorobiphenyl-4-ylmethyl)-hydrazinocarbonyl]-1H-pyrazole-3-carboxylic acid] | ≤ 1
O=C(NN(Cc1ccc(-c2cccc(Cl)c2)cc1)C[C@@H](O)C(=O)O)c1cc(-c2cnccn2)n[nH]1 [Example 4-24, (R)-3-[N-(3′-Chlorobiphenyl-4-ylmethyl)-N′-(5-pyrazin-2-yl-2H-pyrazole-3-carbonyl)-hydrazino]-2-hydroxy-propionic acid] | 1.26 to 10
CC(=O)c1cc(C(=O)NN(Cc2ccc(-c3cccc(Cl)c3)cc2)C[C@@H](O)C(=O)O)[nH]n1 [Example 4-25, (R)-3-[N′-(5-Acetyl-2H-pyrazole-3-carbonyl)-N-(3′-chlorobiphenyl-4-ylmethyl)-hydrazino]-2-hydroxy-propionic acid] | ≤ 1
COCc1cc(C(=O)NN(Cc2ccc(-c3cccc(Cl)c3)cc2)C[C@@H](O)C(=O)O)[nH]n1 [Example 4-26, (R)-3-[N-(3′-Chlorobiphenyl-4-ylmethyl)-N′-(5-methoxymethyl-2H-pyrazole-3-carbonyl)-hydrazino]-2-hydroxy-propionic acid] | 1.26 to 10
CC(C)(O)c1cc(C(=O)NN(Cc2ccc(-c3cccc(Cl)c3)cc2)C[C@@H](O)C(=O)O)[nH]n1 [Example 4-27, (R)-3-{N-(3′-Chlorobiphenyl-4-ylmethyl)-N′-[5-(1-hydroxy-1-methyl-ethyl)-2H-pyrazole-3-carbonyl]-hydrazino}-2-hydroxy-propionic acid] | 1.26 to 10
O=C(NN(Cc1ccc(-c2cccc(Cl)c2)cc1)C[C@@H](O)C(=O)O)c1cnc(-c2ccccc2)o1 [Example 4-28, (R)-3-[N-(3′-Chlorobiphenyl-4-ylmethyl)-N′-(2-phenyl-oxazole-5-carbonyl)-hydrazino]-2-hydroxy-propionic acid] | 12.6 to 100
